# Values quoted from earlier work in patent EP1688139A1 (Board of Regents of the University of Nebraska, priority 2000, dated 2002).
# Test system: 3-nitropropionic acid
# Settings: rats, diet supplemented with creatine for 2 weeks, exposed to 3-nitropropionic acid
substance,measurement,value
N-aminoiminomethyl-N-methylglycine [Creatine],less lesion volume than nonsupplemented animals,83%
